Values of other authors in patent US5668009A, “Methods for treating cotton-containing fabrics with CBH I enriched cellulase” (Genencor International, Inc., priority 1995, dated 1997).

What was measured:
[1] = target: β-Glucosidase (BG) components of fungal cellulase; conditions: competitive inhibition; general characterisation of BG components; read-out: Ki (glucose), competitive inhibition
[2] = target: exo-cellobiohydrolase (CBH) type components, as characterized for CBH I and CBH II from Trichoderma reesei; conditions: competitive inhibition; general characterisation of CBH components; read-out: Ki (cellobiose), competitive inhibition

Row | SMILES | Ki [1] [µM] | Ki [2] [µM]
1 | OC[C@H]1OC(O)[C@H](O)[C@@H](O)[C@@H]1O (some centres unmarked) [glucose] | ~1000 | 
2 | OC[C@H]1O[C@@H](O[C@H]2[C@H](O)[C@@H](O)C(O)O[C@@H]2CO)[C@H](O)[C@@H](O)[C@@H]1O (some centres unmarked) [cellobiose] |  | ~1000
